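Five compound concentrations were applied to cells in 96-well plates for 48 hours; endpoints were derived by simple linear interpolation of the resulting dose-response curve. TGI denotes the concentration required for complete inhibition of growth.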
What was measured:
Assay in all cases: NCI anticancer screen, dose series, 48 h
SW-620 colon = tested on: SW-620 colon
K-562 leukemia = tested on: K-562 leukemia
A498 renal = tested on: A498 renal
LOX IMVI melanoma = tested on: LOX IMVI melanoma
CCRF-CEM leukemia = tested on: CCRF-CEM leukemia
RXF 393 renal = tested on: RXF 393 renal
HS 578T breast = tested on: HS 578T breast
ACHN renal = tested on: ACHN renal
SR leukemia = tested on: SR leukemia
NCI-H23 lung = tested on: NCI-H23 lung
HL-60(TB) leukemia = tested on: HL-60(TB) leukemia
CAKI-1 renal = tested on: CAKI-1 renal
SF-268 CNS = tested on: SF-268 CNS
MALME-3M melanoma = tested on: MALME-3M melanoma
SNB-19 CNS = tested on: SNB-19 CNS
UACC-257 melanoma = tested on: UACC-257 melanoma
OVCAR-3 ovarian = tested on: OVCAR-3 ovarian
DU-145 prostate = tested on: DU-145 prostate
IGROV1 ovarian = tested on: IGROV1 ovarian
SK-MEL-2 melanoma = tested on: SK-MEL-2 melanoma
U251 CNS = tested on: U251 CNS
COLO 205 colon = tested on: COLO 205 colon
NCI-H522 lung = tested on: NCI-H522 lung
KM12 colon = tested on: KM12 colon
OVCAR-4 ovarian = tested on: OVCAR-4 ovarian
OVCAR-5 ovarian = tested on: OVCAR-5 ovarian
SNB-75 CNS = tested on: SNB-75 CNS
M14 melanoma = tested on: M14 melanoma
HOP-92 NSCLC = tested on: HOP-92 NSCLC
SK-OV-3 ovarian = tested on: SK-OV-3 ovarian
MDA-MB-435 = tested on: MDA-MB-435
MCF7 breast = tested on: MCF7 breast
UACC-62 melanoma = tested on: UACC-62 melanoma
HOP-62 NSCLC = tested on: HOP-62 NSCLC
786-0 renal = tested on: 786-0 renal
SK-MEL-28 melanoma = tested on: SK-MEL-28 melanoma
SF-295 CNS = tested on: SF-295 CNS
EKVX NSCLC = tested on: EKVX NSCLC
SN12C renal = tested on: SN12C renal
UO-31 renal = tested on: UO-31 renal
PC-3 prostate = tested on: PC-3 prostate
A549 NSCLC = tested on: A549 NSCLC
MOLT-4 leukemia = tested on: MOLT-4 leukemia
SF-539 CNS = tested on: SF-539 CNS
HCT-116 colon = tested on: HCT-116 colon
RPMI-8226 leukemia = tested on: RPMI-8226 leukemia
MDA-N = tested on: MDA-N
HCT-15 colon = tested on: HCT-15 colon
HCC-2998 colon = tested on: HCC-2998 colon
T-47D breast = tested on: T-47D breast
NCI-H460 lung = tested on: NCI-H460 lung
TK-10 renal = tested on: TK-10 renal
MDA-MB-231 breast = tested on: MDA-MB-231 breast
SK-MEL-5 melanoma = tested on: SK-MEL-5 melanoma
BT-549 breast = tested on: BT-549 breast
HT29 colon = tested on: HT29 colon
NCI/ADR-RES ovarian = tested on: NCI/ADR-RES ovarian
NCI-H226 lung = tested on: NCI-H226 lung
OVCAR-8 ovarian = tested on: OVCAR-8 ovarian

For `CCN(CC)C(=O)C1=C(C)NC(C)=C(C(=O)N(CC)CC)C1`, the TGI (SW-620 colon) was over 100 µM, the TGI (K-562 leukemia) was over 100 µM and the TGI (A498 renal) was over 100 µM. For the same compound, the TGI (LOX IMVI melanoma) was over 100 µM, the TGI (CCRF-CEM leukemia) was over 100 µM and the TGI (RXF 393 renal) was over 100 µM. It also gave a TGI (HS 578T breast) of over 100 µM, a TGI (ACHN renal) of over 100 µM and a TGI (SR leukemia) of over 100 µM. The TGI (NCI-H23 lung) was over 100 µM, the TGI (HL-60(TB) leukemia) was over 100 µM and the TGI (CAKI-1 renal) was over 100 µM. For the same compound, the TGI (SF-268 CNS) was over 100 µM, the TGI (MALME-3M melanoma) was over 100 µM and the TGI (SNB-19 CNS) was over 100 µM. It also gave a TGI (UACC-257 melanoma) of over 100 µM, a TGI (OVCAR-3 ovarian) of over 100 µM and a TGI (DU-145 prostate) of over 100 µM. For the same compound, the TGI (IGROV1 ovarian) was over 100 µM, the TGI (SK-MEL-2 melanoma) was over 100 µM and the TGI (U251 CNS) was over 100 µM. It also gave a TGI (COLO 205 colon) of over 100 µM, a TGI (NCI-H522 lung) of over 100 µM and a TGI (KM12 colon) of over 100 µM. For the same compound, the TGI (OVCAR-4 ovarian) was over 100 µM, the TGI (OVCAR-5 ovarian) was over 100 µM and the TGI (SNB-75 CNS) was 93.4 µM. It also gave a TGI (M14 melanoma) of over 100 µM, a TGI (HOP-92 NSCLC) of over 100 µM and a TGI (SK-OV-3 ovarian) of over 100 µM. For the same compound, the TGI (MDA-MB-435) was over 100 µM, the TGI (MCF7 breast) was over 100 µM and the TGI (UACC-62 melanoma) was over 100 µM. It also gave a TGI (HOP-62 NSCLC) of over 100 µM, a TGI (786-0 renal) of over 100 µM and a TGI (SK-MEL-28 melanoma) of over 100 µM. It also gave a TGI (SF-295 CNS) of over 100 µM, a TGI (EKVX NSCLC) of over 100 µM and a TGI (SN12C renal) of over 100 µM. It also gave a TGI (UO-31 renal) of over 100 µM, a TGI (PC-3 prostate) of over 100 µM and a TGI (A549 NSCLC) of over 100 µM. For the same compound, the TGI (MOLT-4 leukemia) was over 100 µM, the TGI (SF-539 CNS) was over 100 µM and the TGI (HCT-116 colon) was over 100 µM. For the same compound, the TGI (RPMI-8226 leukemia) was over 100 µM, the TGI (MDA-N) was over 100 µM and the TGI (HCT-15 colon) was over 100 µM. The TGI (HCC-2998 colon) was over 100 µM, the TGI (T-47D breast) was over 100 µM and the TGI (NCI-H460 lung) was over 100 µM. It also gave a TGI (TK-10 renal) of over 100 µM, a TGI (MDA-MB-231 breast) of over 100 µM and a TGI (SK-MEL-5 melanoma) of over 100 µM.
`CCC(C)[C@H]1C(=O)N=C(N)N1C(=O)OCc1ccccc1` (stereo not given in full) gave a TGI (SW-620 colon) of over 100 µM, a TGI (K-562 leukemia) of over 100 µM and a TGI (A498 renal) of over 100 µM. The TGI (LOX IMVI melanoma) was over 100 µM, the TGI (RXF 393 renal) was over 100 µM and the TGI (ACHN renal) was over 100 µM. For the same compound, the TGI (SR leukemia) was over 100 µM, the TGI (NCI-H23 lung) was over 100 µM and the TGI (HL-60(TB) leukemia) was over 100 µM. For the same compound, the TGI (CAKI-1 renal) was over 100 µM, the TGI (SF-268 CNS) was over 100 µM and the TGI (BT-549 breast) was over 100 µM. The TGI (MALME-3M melanoma) was over 100 µM, the TGI (SNB-19 CNS) was over 100 µM and the TGI (UACC-257 melanoma) was over 100 µM. The TGI (OVCAR-3 ovarian) was over 100 µM, the TGI (DU-145 prostate) was over 100 µM and the TGI (IGROV1 ovarian) was over 100 µM. The TGI (SK-MEL-2 melanoma) was over 100 µM, the TGI (U251 CNS) was over 100 µM and the TGI (COLO 205 colon) was over 100 µM. For the same compound, the TGI (HT29 colon) was over 100 µM, the TGI (NCI-H522 lung) was over 100 µM and the TGI (KM12 colon) was over 100 µM. It also gave a TGI (OVCAR-4 ovarian) of over 100 µM, a TGI (OVCAR-5 ovarian) of over 100 µM and a TGI (NCI/ADR-RES ovarian) of over 100 µM. The TGI (SNB-75 CNS) was over 100 µM, the TGI (NCI-H226 lung) was over 100 µM and the TGI (MDA-MB-435) was over 100 µM. For the same compound, the TGI (MCF7 breast) was over 100 µM, the TGI (UACC-62 melanoma) was over 100 µM and the TGI (HOP-62 NSCLC) was over 100 µM. For the same compound, the TGI (786-0 renal) was over 100 µM, the TGI (SK-MEL-28 melanoma) was over 100 µM and the TGI (SF-295 CNS) was over 100 µM. The TGI (EKVX NSCLC) was over 100 µM, the TGI (SN12C renal) was over 100 µM and the TGI (UO-31 renal) was over 100 µM. The TGI (PC-3 prostate) was over 100 µM, the TGI (MOLT-4 leukemia) was over 100 µM and the TGI (HCT-116 colon) was over 100 µM. It also gave a TGI (RPMI-8226 leukemia) of over 100 µM, a TGI (MDA-N) of over 100 µM and a TGI (HCT-15 colon) of over 100 µM. It also gave a TGI (HCC-2998 colon) of over 100 µM, a TGI (OVCAR-8 ovarian) of over 100 µM and a TGI (NCI-H460 lung) of over 100 µM. It also gave a TGI (TK-10 renal) of over 100 µM, a TGI (MDA-MB-231 breast) of over 100 µM and a TGI (SK-MEL-5 melanoma) of over 100 µM.
